This is an account of results in US20110152313A1 (MACQUARIE UNIVERSITY, priority 2008, published 2011).

The structures appear in SMILES notation. Some results are limits rather than exact numbers.

Holding throughout (experiment): kinase binding constant, 11-point dose response (T7 phage, qPCR)
Holding throughout (conditions): >30 = no inhibition at highest concentration tested
A general note: In qPCR the cycle at which signal appears reflects the starting amount.

The target of experiment [1] is T1, ULK1 (Homo sapiens, UniProt O75385).
T1 sequence (O75385 1-1050): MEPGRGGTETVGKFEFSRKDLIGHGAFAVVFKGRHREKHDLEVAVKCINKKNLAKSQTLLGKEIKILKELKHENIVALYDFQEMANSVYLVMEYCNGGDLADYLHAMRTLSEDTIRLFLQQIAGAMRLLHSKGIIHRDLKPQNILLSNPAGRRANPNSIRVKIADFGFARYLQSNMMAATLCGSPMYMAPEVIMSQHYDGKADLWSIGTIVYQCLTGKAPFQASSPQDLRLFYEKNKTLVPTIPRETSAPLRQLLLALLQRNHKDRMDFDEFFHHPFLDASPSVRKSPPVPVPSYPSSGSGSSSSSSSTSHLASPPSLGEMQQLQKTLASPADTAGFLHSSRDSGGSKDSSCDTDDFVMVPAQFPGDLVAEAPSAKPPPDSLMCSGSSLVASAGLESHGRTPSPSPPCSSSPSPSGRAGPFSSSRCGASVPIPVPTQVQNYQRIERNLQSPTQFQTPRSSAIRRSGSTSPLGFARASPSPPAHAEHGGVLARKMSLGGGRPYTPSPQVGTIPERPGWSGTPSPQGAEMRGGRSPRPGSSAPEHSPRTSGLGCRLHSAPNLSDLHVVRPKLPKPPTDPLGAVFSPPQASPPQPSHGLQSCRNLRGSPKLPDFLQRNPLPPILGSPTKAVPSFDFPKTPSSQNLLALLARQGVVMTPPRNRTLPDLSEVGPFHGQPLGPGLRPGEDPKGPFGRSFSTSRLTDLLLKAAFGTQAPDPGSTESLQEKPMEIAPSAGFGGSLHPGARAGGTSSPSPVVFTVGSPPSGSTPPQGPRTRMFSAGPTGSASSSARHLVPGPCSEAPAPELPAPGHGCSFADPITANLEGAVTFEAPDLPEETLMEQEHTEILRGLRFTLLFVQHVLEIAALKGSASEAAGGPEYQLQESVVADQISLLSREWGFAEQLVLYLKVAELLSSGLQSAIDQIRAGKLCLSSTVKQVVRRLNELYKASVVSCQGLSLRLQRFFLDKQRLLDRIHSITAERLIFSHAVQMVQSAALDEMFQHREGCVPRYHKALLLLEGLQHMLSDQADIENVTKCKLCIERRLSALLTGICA
Here is the method:
(§1) Kinase inhibition studies were performed by methods well known in the prior art (Fabian, M. A. et al. Nat. Biotechnol. 2005, 23, 329). Briefly, kinase-tagged T7 phage strains were prepared in an E. coli host derived from the BL21 strain. E. coli were grown to log-phase and infected with T7 phage and incubated with shaking at 32° C. until lysis. The lysates were centrifuged and filtered to remove cell debris. […] The liganded beads were blocked with excess biotin and washed with blocking buffer (SeaBlock (Pierce); 1% BSA, 0.05% Tween 20, 1 mM DTT) to remove unbound ligand and to reduce non-specific binding. […] All reactions were performed in polystyrene 96-well plates in a final volume of 0.135 ml. […] The kinase concentration in the eluates was measured by qPCR.
(§2) An 11-point 3-fold serial dilution of each test compound (from 30 μM to 0.5 nM) was prepared in 100% DMSO at 100× final test concentration and subsequently diluted to 1× in the assay (final DMSO concentration=1%). Binding constants (KDS) were calculated with a standard dose-response curve using a 5-point sigmoidal (Hill) equation.

The target in experiment [2] is T2, TYK2 (Homo sapiens, UniProt P29597).
T2 construct: TYK2(JH2domain-pseudokinase)
T2 sequence (P29597 whole entry): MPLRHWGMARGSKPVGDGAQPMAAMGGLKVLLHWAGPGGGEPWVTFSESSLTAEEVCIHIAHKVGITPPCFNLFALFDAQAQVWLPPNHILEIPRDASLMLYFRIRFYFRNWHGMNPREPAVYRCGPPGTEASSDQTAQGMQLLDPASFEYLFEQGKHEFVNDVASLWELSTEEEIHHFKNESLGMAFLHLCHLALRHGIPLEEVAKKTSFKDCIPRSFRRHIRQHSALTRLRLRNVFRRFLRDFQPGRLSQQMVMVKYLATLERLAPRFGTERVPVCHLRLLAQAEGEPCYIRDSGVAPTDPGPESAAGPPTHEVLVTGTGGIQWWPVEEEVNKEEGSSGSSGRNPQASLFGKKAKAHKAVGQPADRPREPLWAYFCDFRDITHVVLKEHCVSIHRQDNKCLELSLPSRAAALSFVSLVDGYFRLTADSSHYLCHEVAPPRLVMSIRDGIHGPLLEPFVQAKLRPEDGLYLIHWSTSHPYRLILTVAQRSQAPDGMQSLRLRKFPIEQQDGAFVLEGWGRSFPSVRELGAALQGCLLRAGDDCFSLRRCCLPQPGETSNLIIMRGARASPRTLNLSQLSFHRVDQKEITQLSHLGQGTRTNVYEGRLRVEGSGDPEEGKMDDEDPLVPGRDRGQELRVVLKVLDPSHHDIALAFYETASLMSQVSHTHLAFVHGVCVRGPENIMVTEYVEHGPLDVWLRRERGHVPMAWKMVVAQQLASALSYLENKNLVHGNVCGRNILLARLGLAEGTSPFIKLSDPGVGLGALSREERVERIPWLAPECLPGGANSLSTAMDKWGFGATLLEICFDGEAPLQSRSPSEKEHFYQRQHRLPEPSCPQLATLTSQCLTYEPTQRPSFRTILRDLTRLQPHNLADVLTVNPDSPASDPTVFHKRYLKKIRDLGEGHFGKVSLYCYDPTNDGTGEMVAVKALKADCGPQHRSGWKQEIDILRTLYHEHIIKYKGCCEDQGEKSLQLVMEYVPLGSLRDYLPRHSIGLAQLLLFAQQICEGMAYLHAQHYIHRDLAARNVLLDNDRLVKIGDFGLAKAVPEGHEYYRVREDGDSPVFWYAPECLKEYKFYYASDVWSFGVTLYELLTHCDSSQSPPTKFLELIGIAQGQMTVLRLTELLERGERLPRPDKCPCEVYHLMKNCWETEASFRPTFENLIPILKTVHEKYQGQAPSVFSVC
The protocol: as §1, §2

Experiment [3] concerns the target YANK2 (Homo sapiens, UniProt Q9NY57). The protocol: as §1, §2
Experiment [4] addresses T3, CDKL5 (Homo sapiens, UniProt O76039).
T3 sequence (O76039 1-960): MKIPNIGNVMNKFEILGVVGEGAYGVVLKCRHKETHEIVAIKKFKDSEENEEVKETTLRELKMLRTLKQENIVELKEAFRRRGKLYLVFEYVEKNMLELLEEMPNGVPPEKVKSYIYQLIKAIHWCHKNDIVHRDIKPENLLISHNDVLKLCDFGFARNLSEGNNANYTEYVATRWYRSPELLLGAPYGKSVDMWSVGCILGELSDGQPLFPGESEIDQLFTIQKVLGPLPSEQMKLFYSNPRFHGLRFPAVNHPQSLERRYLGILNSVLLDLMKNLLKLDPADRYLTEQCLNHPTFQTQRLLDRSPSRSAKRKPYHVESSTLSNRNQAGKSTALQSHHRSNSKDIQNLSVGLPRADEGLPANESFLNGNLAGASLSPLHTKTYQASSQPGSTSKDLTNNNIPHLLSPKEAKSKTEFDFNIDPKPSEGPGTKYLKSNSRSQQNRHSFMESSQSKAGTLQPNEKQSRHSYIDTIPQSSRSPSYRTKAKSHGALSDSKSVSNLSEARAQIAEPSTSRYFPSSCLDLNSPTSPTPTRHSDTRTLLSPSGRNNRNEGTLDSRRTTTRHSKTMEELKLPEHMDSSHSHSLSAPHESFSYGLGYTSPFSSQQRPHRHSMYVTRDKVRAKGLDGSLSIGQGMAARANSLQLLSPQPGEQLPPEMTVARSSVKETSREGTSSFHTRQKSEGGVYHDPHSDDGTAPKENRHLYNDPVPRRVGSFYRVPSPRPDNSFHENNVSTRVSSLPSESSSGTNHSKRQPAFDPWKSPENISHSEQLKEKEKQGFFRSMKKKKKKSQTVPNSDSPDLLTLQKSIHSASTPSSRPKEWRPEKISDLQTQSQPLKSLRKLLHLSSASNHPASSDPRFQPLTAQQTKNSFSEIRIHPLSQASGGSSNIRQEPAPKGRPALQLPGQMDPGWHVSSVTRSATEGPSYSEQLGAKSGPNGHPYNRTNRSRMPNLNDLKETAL
Here is the method: as §1, §2

Chain of YANK2 (Q9NY57 whole entry): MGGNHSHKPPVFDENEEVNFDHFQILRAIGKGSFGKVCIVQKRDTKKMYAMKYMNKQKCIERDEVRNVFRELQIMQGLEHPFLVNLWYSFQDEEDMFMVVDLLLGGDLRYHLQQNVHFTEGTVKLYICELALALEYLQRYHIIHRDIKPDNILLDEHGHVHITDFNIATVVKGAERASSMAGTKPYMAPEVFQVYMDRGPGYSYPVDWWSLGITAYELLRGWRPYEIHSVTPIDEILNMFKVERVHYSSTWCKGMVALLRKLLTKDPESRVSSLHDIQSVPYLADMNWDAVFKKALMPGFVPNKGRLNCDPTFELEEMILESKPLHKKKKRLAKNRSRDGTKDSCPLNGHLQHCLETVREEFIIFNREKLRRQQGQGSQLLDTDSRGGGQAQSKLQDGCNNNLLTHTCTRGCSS

Turning to `Nc1nc2c(-c3ccccn3)nccc2[nH]1` [drawing 35, 4-(pyrid-2-yl)-1H-imidazo[4,5-c]pyridin-2-amine], in experiment [1], the Kd is 24 µM.

`Nc1nc2c(-c3cnc4ccccc4c3)nccc2[nH]1` [drawing 36, 4-(quinolin-3-yl)-1H-imidazo[4,5-c]pyridin-2-amine]: the Kd in experiment [2] is 0.29 µM; in experiment [3], above 30 µM; in experiment [4], above 30 µM.

In general, Kd refers to the concentration at which binding is half-saturated. Higher therefore signals weaker binding.
